Series [1] in a line: Exposed Polar Surface Area (EPSA). To be noted: SFC on Chirex 3014 column, sample 1 mM DMSO stock. In kind it is physicochemical. In outline: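 EPSA, in Å^2, is read from SFC retention time through a linear relationship established with eight calibration standards. Separation uses a Chirex 3014 stationary phase, 35 °C, 14 MPa back pressure, and a 5–60% methanol/ammonium formate modifier gradient in CO2.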

The target in another series is T1, IL-23R (Homo sapiens, UniProt Q5VWK5).
T1 construct: host or cells: HEK293
T1 sequence (Q5VWK5 24-629): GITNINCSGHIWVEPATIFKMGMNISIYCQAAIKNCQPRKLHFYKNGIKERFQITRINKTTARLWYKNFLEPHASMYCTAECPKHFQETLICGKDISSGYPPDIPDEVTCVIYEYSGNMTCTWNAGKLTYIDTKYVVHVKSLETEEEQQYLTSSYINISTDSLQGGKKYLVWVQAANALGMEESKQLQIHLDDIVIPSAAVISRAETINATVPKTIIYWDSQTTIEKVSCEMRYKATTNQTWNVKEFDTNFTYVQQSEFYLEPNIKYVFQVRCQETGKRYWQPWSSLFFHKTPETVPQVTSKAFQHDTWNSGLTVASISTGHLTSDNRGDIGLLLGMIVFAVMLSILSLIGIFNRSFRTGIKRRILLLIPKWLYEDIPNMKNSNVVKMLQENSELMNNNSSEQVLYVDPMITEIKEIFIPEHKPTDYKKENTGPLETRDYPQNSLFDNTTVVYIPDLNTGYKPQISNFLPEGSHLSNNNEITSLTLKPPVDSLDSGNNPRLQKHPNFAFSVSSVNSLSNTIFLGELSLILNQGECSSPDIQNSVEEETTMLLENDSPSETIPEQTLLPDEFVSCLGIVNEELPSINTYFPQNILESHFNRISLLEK
Description: IL23R Reporter Assay. The class given is cell-based. The settings on record: HEK293 cells containing IL-23R, IL-12RP1 and STAT-inducible firefly luciferase reporter; 10 ng/mL IL-23 (EC90); 5 h at 37° C.; read-out: IL23R Reporter Assay.

Read-outs that look alike come from different tables or passages of the source. Starred links: 1 amine or outer side, 2 acyl side, 3 side chain; linkers in the order of their positions; H or OH if unused. Positions of bridges follow the written chain, without caps; N, C: chain ends. Non-standard residues stand in square brackets, D forms with d. Residues, ends and D or L forms follow the SMILES beside them. *: point of attachment. Me3N+(CH2)2O(CH2)2O(CH2)2CO = C[N+](C)(C)CCOCCOCCC(=O)*; CH2CH2OCH2CH2OCH2CH2NMe3+ = C[N+](C)(C)CCOCCOCC*; Trp(7-Me) = Cc1cccc2c(C[C@H](N)C(=O)O)c[nH]c12; Dab(NMeAc) = CC(=O)N(C)CC[C@H](N)C(=O)O; X1 = CN(CC[C@H](N[*:1])C(=O)[*:2])[*:3]; 2Nal = N[C@@H](Cc1ccc2ccccc2c1)C(=O)O; AEF = NCCOc1ccc(C[C@H](N)C(=O)O)cc1; 3Pal = N[C@@H](Cc1cccnc1)C(=O)O; Cit = NC(=O)NCCC[C@H](N)C(=O)O; Lys(Me) = CNCCCC[C@H](N)C(=O)O; X7 = COCCOCCOCCOCCOCCOCCC(=O)*; Pen = CC(C)(S)[C@H](N)C(=O)O; Thp = NC1(C(=O)O)CCOCC1; X3 = C[N+](C)(C)CCCCC*; Me2NCH2CH2 = CN(C)CC*; Sar = CNCC(=O)O; X2 = CNCC*

For the compound `CC(=O)N[C@@H]1C(=O)N[C@@H](CC(=O)N(C)C)C(=O)N[C@@H]([C@@H](C)O)C(=O)N[C@@H](Cc2c[nH]c3c(C)cccc23)C(=O)N[C@@H](CCCCN(C)C(C)=O)C(=O)N[C@H](C(=O)N[C@@H](Cc2ccc(OCCN(C)C)cc2)C(=O)N[C@@H](Cc2ccc3ccccc3c2)C(=O)NC2(C(=O)N[C@@H](CCCCN(C)C(C)=O)C(=O)N[C@@H](CC(N)=O)C(=O)N[C@@H](Cc3cccnc3)C(=O)N(C)CC(=O)N(C)C)CCOCC2)C(C)(C)SSC1(C)C` [compound 122, MeCO-Pen(3)-N(N(Me)2)-T-7MeW-K(NMeAc)-Pen(3)-AEF(N(Me)2)-2Nal-THP-K(NMeAc)-N-3Pya-Sar-CON(Me)2] (Ac-[Pen]D(NMe2)T[Trp(7-Me)][Lys(Me)](Ac)[Pen]Y(Me2NCH2CH2)[2Nal][Thp][Lys(Me)](Ac)N[3Pal][Sar]-NMe2; disulfide 1-6), the EPSA in series [1] (read-out: EPSA) was 141 A^2. The IC50 on IL-23R came to 2.1 nM.
Regarding `CNCCOc1ccc(C[C@H](NC(=O)[C@H]2NC(=O)[C@H](CCCCN(C)C(C)=O)NC(=O)[C@H](Cc3c[nH]c4c(C)cccc34)NC(=O)[C@H]([C@@H](C)O)NC(=O)[C@H](CC(=O)NC)NC(=O)[C@@H](NC(C)=O)C(C)(C)SSC2(C)C)C(=O)N[C@@H](Cc2ccc3ccccc3c2)C(=O)NC2(C(=O)N[C@@H](CCCCN(C)C(C)=O)C(=O)N[C@@H](CC(N)=O)C(=O)N[C@@H](Cc3cccnc3)C(=O)N(C)CC(=O)NC)CCOCC2)cc1` [SEQ ID 67] (Ac-[Pen]D(NHMe)T[Trp(7-Me)][Lys(Me)](Ac)[Pen]Y(X2)[2Nal][Thp][Lys(Me)](Ac)N[3Pal][Sar]-NHMe; disulfide 1-6 (inferred)), the EPSA amounted to 184 Å^2 in series [1] (listed as 2) and 150 A^2 in series [1] (read-out: EPSA). For the same compound, the IC50 at IL-23R is 1050 nM.
As for `CC(=O)N(C)CCCC[C@H](NC(=O)C1(NC(=O)[C@H](Cc2ccc3ccccc3c2)NC(=O)[C@H](Cc2ccc(OCCCCC[N+](C)(C)C)cc2)NC(=O)[C@H]2NC(=O)[C@H](CCCNC(N)=O)NC(=O)[C@H](Cc3c[nH]c4c(C)cccc34)NC(=O)[C@H]([C@@H](C)O)NC(=O)[C@H](CC(=O)N(C)C)NC(=O)[C@@H](NC(=O)CCOCCOCC[N+](C)(C)C)C(C)(C)SSC2(C)C)CCOCC1)C(=O)N[C@@H](CC(N)=O)C(=O)N[C@@H](Cc1cccnc1)C(=O)N(C)CC(=O)N(C)C` [compound 346, cPEG3aCO-Pen(3)-N(N(Me)2)-T-7MeW-Cit-Pen(3)-TMAPF-2Nal-THP-K(NMeAc)-N-3Pya-Sar-CON(Me)2] ({Me3N+(CH2)2O(CH2)2O(CH2)2CO}-[Pen]D(NMe2)T[Trp(7-Me)][Cit][Pen]Y(X3)[2Nal][Thp][Lys(Me)](Ac)N[3Pal][Sar]-NMe2; disulfide 1-6), the EPSA in series [1] (read-out: EPSA) amounted to 158 A^2. For the same compound, the IC50 on IL-23R is 1.8 nM.
The like results for `CC(=O)NCCCC[C@@H]1NC(=O)[C@H](Cc2c[nH]c3c(C)cccc23)NC(=O)[C@H]([C@@H](C)O)NC(=O)[C@H](CC(=O)N(C)C)NC(=O)[C@@H](NC(=O)CCOCCOCC[N+](C)(C)C)C(C)(C)SSC(C)(C)[C@@H](C(=O)N[C@@H](Cc2ccc(OCCCCC[N+](C)(C)C)cc2)C(=O)N[C@@H](Cc2ccc3ccccc3c2)C(=O)NC2(C(=O)N[C@@H](CCN(C)C(C)=O)C(=O)N[C@@H](CC(N)=O)C(=O)N[C@@H](Cc3cccnc3)C(=O)N(C)CC(=O)N(C)C)CCOCC2)NC1=O` [compound 308, cPEG3aCO-Pen(3)-N(N(Me)2)-T-7MeW-K(Ac)-Pen(3)-TMAPF-2Nal-THP-Dab(NMeAc)-N-3Pya-Sar-CON(Me)2] ({Me3N+(CH2)2O(CH2)2O(CH2)2CO}-[Pen]D(NMe2)T[Trp(7-Me)]K(Ac)[Pen]Y(X3)[2Nal][Thp][Dab(NMeAc)]N[3Pal][Sar]-NMe2; disulfide 1-6) were, in that order, 154 A^2 and 2 nM.
Take `CC(=O)N(C)CCCC[C@@H]1NC(=O)[C@H](Cc2ccc3ccccc3c2)NC(=O)[C@H]([C@@H](C)O)NC(=O)[C@H](CC(=O)N(C)C)NC(=O)[C@@H](NC(=O)CCOCCOCC[N+](C)(C)C)C(C)(C)SSC(C)(C)[C@@H](C(=O)N[C@@H](Cc2ccc(OCCCCC[N+](C)(C)C)cc2)C(=O)N[C@@H](Cc2ccc3ccccc3c2)C(=O)NC2(C(=O)N[C@@H](CCCCN(C)C(C)=O)C(=O)N[C@@H](CC(N)=O)C(=O)N[C@@H](Cc3cccnc3)C(=O)N(C)CC(=O)N(C)C)CCOCC2)NC1=O` [compound 509, cPEG3aCO-Pen(3)-N(N(Me)2)-T-2Nal-K(NMeAc)-Pen(3)-TMAPF-2Nal-THP-K(NMeAc)-N-3Pya-Sar-CONMe2] ({Me3N+(CH2)2O(CH2)2O(CH2)2CO}-[Pen]D(NMe2)T[2Nal][Lys(Me)](Ac)[Pen]Y(X3)[2Nal][Thp][Lys(Me)](Ac)N[3Pal][Sar]-NMe2; disulfide 1-6): the EPSA in series [1] (read-out: EPSA) amounted to 161 A^2. For the same compound, the IC50 at IL-23R was 32 nM.
With `COCCOCCOCCOCCOCCOCCC(=O)N(C)CC[C@@H]1NC(=O)[C@H](Cc2c[nH]c3c(C)cccc23)NC(=O)[C@H]([C@@H](C)O)NC(=O)[C@H](CC(=O)N(C)C)NC(=O)[C@@H](NC(C)=O)C(C)(C)SSC(C)(C)[C@@H](C(=O)N[C@@H](Cc2ccc(OCCN)cc2)C(=O)N[C@@H](Cc2ccc3ccccc3c2)C(=O)NC2(C(=O)N[C@@H](CCN(C)C(=O)CCOCCOCCOCCOCCOCCOC)C(=O)N[C@@H](CC(N)=O)C(=O)N[C@@H](Cc3cccnc3)C(=O)N(C)CC(=O)N(C)C)CCOCC2)NC1=O` [compound 141, MeCO-Pen(3)-N(N(Me)2)-T-7MeW-Dab(NMeCOmPEG6)-Pen(3)-AEF-2Nal-THP-Dab(NMeCOmPEG6)-N-3Pya-Sar-CON(Me)2] (Ac-[Pen]D(NMe2)T[Trp(7-Me)][X1](X7)[Pen][AEF][2Nal][Thp][X1](X7)N[3Pal][Sar]-NMe2; disulfide 1-6), the EPSA in series [1] (read-out: EPSA) was determined as 140 A^2. Further, on IL-23R, the IC50 amounted to 5.7 nM.
Taken in the same sequence, the figures for `CC(=O)N(C)CCCC[C@H](NC(=O)C1(NC(=O)[C@H](Cc2ccc3ccccc3c2)NC(=O)[C@H](Cc2ccc(OCCOCCOCC[N+](C)(C)C)cc2)NC(=O)[C@H]2NC(=O)[C@H](CCCCNC(=O)CCOCCOCC[N+](C)(C)C)NC(=O)[C@H](Cc3c[nH]c4c(C)cccc34)NC(=O)[C@H]([C@@H](C)O)NC(=O)[C@H](CC(=O)N(C)C)NC(=O)[C@@H](NC(=O)CCOCCOCC[N+](C)(C)C)C(C)(C)SSC2(C)C)CCOCC1)C(=O)N[C@@H](CC(N)=O)C(=O)N[C@@H](Cc1cccnc1)C(=O)N(C)CC(=O)N(C)C` [compound 544, cPEG3aCO-Pen(3)-N(N(Me)2)-T-7MeW-K(cPEG3aCO)-Pen(3)-APEG3F-2Nal-THP-K(NMeAc)-N-3Pya-Sar-CON(Me)2] ({Me3N+(CH2)2O(CH2)2O(CH2)2CO}-[Pen]D(NMe2)T[Trp(7-Me)]K(Me3N+(CH2)2O(CH2)2O(CH2)2CO)[Pen]Y(CH2CH2OCH2CH2OCH2CH2NMe3+)[2Nal][Thp][Lys(Me)](Ac)N[3Pal][Sar]-NMe2; disulfide 1-6) were 157 A^2 and 2 nM.

Source of the values: patent US20260022143A1, “Cyclic Peptide Inhibitors of IL-23” (JANSSEN PHARMACEUTICA NV, priority 2022, published 2026).
